Assay in all cases: MIC, standard broth micro-dilution assay
Holding throughout (type): cell-based
(In general: Broth dilution looks for growth in wells or tubes with falling amounts of substance.)

One test concerns Entercoccus faecalis 276. Here is the method:
(§1) The formula I compounds have in vitro and in vivo activity against Gram-positive pathogenic bacteria. The MIC's were determined using a standard broth micro-dilution assay.

Test [1] deals with Entercoccus gallinarum 245. Here is the method: as §1
In test [2] the test system is Entercoccus faecalis 2041. As for the experimental part:
as §1

For orientation: MIC means the least concentration at which growth counts as inhibited. Lower therefore signals a more susceptible organism.

Values after ≈ are worked out from the molar mass of the structure shown.

In the case of “4-[3-trifluoromethylphenoxy]-3-nitrobenzyl [Compound 114]”, the values for the minimum inhibitory concentration (MIC) (in the test on Entercoccus faecalis 276; in test [1]; in test [2]) were 1 µg/mL, 2 µg/mL and 0.25 µg/mL, respectively.

`CNC(CC(C)C)C(=O)NC1C(=O)NC(CC(N)=O)C(=O)NC2C(=O)NC3C(=O)NC(C(=O)NC(C(=O)O)c4cc(O)cc(O)c4-c4cc3ccc4O)C(OC3CC(C)(N)C(O)C(C)O3)c3ccc(c(Cl)c3)Oc3cc2cc(c3OC2OC(CO)C(O)C(O)C2OC2CC(C)(NCc3cccc4ccccc34)C(O)C(C)O2)Oc2ccc(cc2Cl)C1O` (centres unmarked) [Compound 3, 1-naphthylmethyl]: the MIC (with Entercoccus faecalis 276; in test [1]; in test [2]) was no more than 0.06 µg/mL throughout.

Take `C=CCOc1ccc(CNC2(C)CC(OC3C(Oc4c5cc6cc4Oc4ccc(cc4Cl)C(OC4CC(C)(N)C(O)C(C)O4)C4NC(=O)C(NC(=O)C6NC(=O)C(CC(N)=O)NC(=O)C(NC(=O)C(CC(C)C)NC)C(O)c6ccc(c(Cl)c6)O5)c5ccc(O)c(c5)-c5c(O)cc(O)cc5C(C(=O)O)NC4=O)OC(CO)C(O)C3O)OC(C)C2O)cc1` (centres unmarked) [Compound 7, 4-allyloxybenzyl]: the MIC in the test with Entercoccus faecalis 276 was determined as 1 µg/mL (≈ 0.575 µM); in test [1], 0.5 µg/mL (≈ 0.288 µM); in test [2], 0.125 µg/mL (≈ 0.0719 µM).

As to `CCCCCCCCCOc1ccc(CNC2(C)CC(OC3C(Oc4c5cc6cc4Oc4ccc(cc4Cl)C(OC4CC(C)(N)C(O)C(C)O4)C4NC(=O)C(NC(=O)C6NC(=O)C(CC(N)=O)NC(=O)C(NC(=O)C(CC(C)C)NC)C(O)c6ccc(c(Cl)c6)O5)c5ccc(O)c(c5)-c5c(O)cc(O)cc5C(C(=O)O)NC4=O)OC(CO)C(O)C3O)OC(C)C2O)cc1` (centres unmarked) [Compound 8, 4-nonyloxybenzyl], the MIC in the test on Entercoccus faecalis 276 was determined as 4 µg/mL (≈ 2.19 µM); in test [1], 8 µg/mL (≈ 4.38 µM); in test [2] it was 4 µg/mL (≈ 2.19 µM).

Consider `CNC(CC(C)C)C(=O)NC1C(=O)NC(CC(N)=O)C(=O)NC2C(=O)NC3C(=O)NC(C(=O)NC(C(=O)O)c4cc(O)cc(O)c4-c4cc3ccc4O)C(OC3CC(C)(N)C(O)C(C)O3)c3ccc(c(Cl)c3)Oc3cc2cc(c3OC2OC(CO)C(O)C(O)C2OC2CC(C)(NCc3cc4ccccc4c4ccccc34)C(O)C(C)O2)Oc2ccc(cc2Cl)C1O` (centres unmarked) [Compound 11, 9-phenanthranylmethyl], for which the results for the MIC (against Entercoccus faecalis 276; in test [1]; in test [2]) were 1 µg/mL (≈ 0.561 µM), no more than 0.06 µg/mL and 0.5 µg/mL (≈ 0.28 µM), respectively.

In the case of `CNC(CC(C)C)C(=O)NC1C(=O)NC(CC(N)=O)C(=O)NC2C(=O)NC3C(=O)NC(C(=O)NC(C(=O)O)c4cc(O)cc(O)c4-c4cc3ccc4O)C(OC3CC(C)(N)C(O)C(C)O3)c3ccc(c(Cl)c3)Oc3cc2cc(c3OC2OC(CO)C(O)C(O)C2OC2CC(C)(NCc3ccc(OC)c4ccccc34)C(O)C(C)O2)Oc2ccc(cc2Cl)C1O` (centres unmarked) [Compound 15, 4-methoxy-1-naphthylmethyl], the MIC (against Entercoccus faecalis 276; in test [1]; in test [2]) was no more than 0.06 µg/mL throughout.

`CNC(CC(C)C)C(=O)NC1C(=O)NC(CC(N)=O)C(=O)NC2C(=O)NC3C(=O)NC(C(=O)NC(C(=O)O)c4cc(O)cc(O)c4-c4cc3ccc4O)C(OC3CC(C)(N)C(O)C(C)O3)c3ccc(c(Cl)c3)Oc3cc2cc(c3OC2OC(CO)C(O)C(O)C2OC2CC(C)(NCc3ccc4ccc5cccc6ccc3c4c56)C(O)C(C)O2)Oc2ccc(cc2Cl)C1O` (centres unmarked) [Compound 16, 1-pyrenylmethyl]: the MIC turned out to be 2 µg/mL (≈ 1.11 µM) with Entercoccus faecalis 276, 1 µg/mL (≈ 0.553 µM) in test [1] and 0.5 µg/mL (≈ 0.277 µM) in test [2].

For the compound `CNC(CC(C)C)C(=O)NC1C(=O)NC(CC(N)=O)C(=O)NC2C(=O)NC3C(=O)NC(C(=O)NC(C(=O)O)c4cc(O)cc(O)c4-c4cc3ccc4O)C(OC3CC(C)(N)C(O)C(C)O3)c3ccc(c(Cl)c3)Oc3cc2cc(c3OC2OC(CO)C(O)C(O)C2OC2CC(C)(NCc3c4ccccc4c(C)c4ccccc34)C(O)C(C)O2)Oc2ccc(cc2Cl)C1O` (centres unmarked) [Compound 17, 9-[10-methyl]anthranylmethyl], the MIC with Entercoccus faecalis 276 amounted to 0.5 µg/mL (≈ 0.278 µM); in test [1] it was 0.5 µg/mL (≈ 0.278 µM); in test [2], 0.25 µg/mL (≈ 0.139 µM).

As for `CNC(CC(C)C)C(=O)NC1C(=O)NC(CC(N)=O)C(=O)NC2C(=O)NC3C(=O)NC(C(=O)NC(C(=O)O)c4cc(O)cc(O)c4-c4cc3ccc4O)C(OC3CC(C)(N)C(O)C(C)O3)c3ccc(c(Cl)c3)Oc3cc2cc(c3OC2OC(CO)C(O)C(O)C2OC2CC(C)(NCc3c4ccccc4c(Cl)c4ccccc34)C(O)C(C)O2)Oc2ccc(cc2Cl)C1O` (centres unmarked) [Compound 18, 9-[10-chloro]anthranylmethyl], the minimum inhibitory concentration (MIC) in the test with Entercoccus faecalis 276 amounted to 1 µg/mL (≈ 0.55 µM); in test [1] it was 1 µg/mL (≈ 0.55 µM); in test [2] it was 0.25 µg/mL (≈ 0.138 µM).

As to `CNC(CC(C)C)C(=O)NC1C(=O)NC(CC(N)=O)C(=O)NC2C(=O)NC3C(=O)NC(C(=O)NC(C(=O)O)c4cc(O)cc(O)c4-c4cc3ccc4O)C(OC3CC(C)(N)C(O)C(C)O3)c3ccc(c(Cl)c3)Oc3cc2cc(c3OC2OC(CO)C(O)C(O)C2OC2CC(C)(NCc3cc4ccccc4s3)C(O)C(C)O2)Oc2ccc(cc2Cl)C1O` (centres unmarked) [Compound 19, 2-benzthienylmethyl], the MIC (in the test on Entercoccus faecalis 276; in test [1]; in test [2]) was no more than 0.06 µg/mL each time.

On to `CCCCCc1ccc(-c2ccc(CNC3(C)CC(OC4C(Oc5c6cc7cc5Oc5ccc(cc5Cl)C(OC5CC(C)(N)C(O)C(C)O5)C5NC(=O)C(NC(=O)C7NC(=O)C(CC(N)=O)NC(=O)C(NC(=O)C(CC(C)C)NC)C(O)c7ccc(c(Cl)c7)O6)c6ccc(O)c(c6)-c6c(O)cc(O)cc6C(C(=O)O)NC5=O)OC(CO)C(O)C4O)OC(C)C3O)cc2)cc1` (centres unmarked) [Compound 22, 4-[4-pentylphenyl]benzyl], for which the results for the minimum inhibitory concentration (MIC) (against Entercoccus faecalis 276; in test [1]; in test [2]) were 4 µg/mL (≈ 2.19 µM), 1 µg/mL (≈ 0.547 µM) and 2 µg/mL (≈ 1.09 µM), respectively.

For the compound `CCCCCCCCOc1ccc(-c2ccc(CNC3(C)CC(OC4C(Oc5c6cc7cc5Oc5ccc(cc5Cl)C(OC5CC(C)(N)C(O)C(C)O5)C5NC(=O)C(NC(=O)C7NC(=O)C(CC(N)=O)NC(=O)C(NC(=O)C(CC(C)C)NC)C(O)c7ccc(c(Cl)c7)O6)c6ccc(O)c(c6)-c6c(O)cc(O)cc6C(C(=O)O)NC5=O)OC(CO)C(O)C4O)OC(C)C3O)cc2)cc1` (centres unmarked) [Compound 23, 4-[4-octyloxyphenyl]benzyl], the MIC with Entercoccus faecalis 276 amounted to 32 µg/mL (≈ 17 µM); in test [1] it was 8 µg/mL (≈ 4.24 µM); in test [2], 32 µg/mL (≈ 17 µM).

In the case of `CNC(CC(C)C)C(=O)NC1C(=O)NC(CC(N)=O)C(=O)NC2C(=O)NC3C(=O)NC(C(=O)NC(C(=O)O)c4cc(O)cc(O)c4-c4cc3ccc4O)C(OC3CC(C)(N)C(O)C(C)O3)c3ccc(c(Cl)c3)Oc3cc2cc(c3OC2OC(CO)C(O)C(O)C2OC2CC(C)(NCc3cccnc3)C(O)C(C)O2)Oc2ccc(cc2Cl)C1O` (centres unmarked) [Compound 24, 3-pyridylmethyl], the results for the MIC (against Entercoccus faecalis 276; in test [1]; in test [2]) were 0.25 µg/mL (≈ 0.148 µM), 0.25 µg/mL (≈ 0.148 µM) and no more than 0.06 µg/mL, respectively.

With `CNC(CC(C)C)C(=O)NC1C(=O)NC(CC(N)=O)C(=O)NC2C(=O)NC3C(=O)NC(C(=O)NC(C(=O)O)c4cc(O)cc(O)c4-c4cc3ccc4O)C(OC3CC(C)(N)C(O)C(C)O3)c3ccc(c(Cl)c3)Oc3cc2cc(c3OC2OC(CO)C(O)C(O)C2OC2CC(C)(NCCc3ccc(Oc4ccccc4)cc3)C(O)C(C)O2)Oc2ccc(cc2Cl)C1O` (centres unmarked) [Compound 33, 4-phenoxyphenethyl], the minimum inhibitory concentration (MIC) (against Entercoccus faecalis 276; in test [2]) was no more than 0.06 µg/mL in each case.

For the compound `CNC(CC(C)C)C(=O)NC1C(=O)NC(CC(N)=O)C(=O)NC2C(=O)NC3C(=O)NC(C(=O)NC(C(=O)O)c4cc(O)cc(O)c4-c4cc3ccc4O)C(OC3CC(C)(N)C(O)C(C)O3)c3ccc(c(Cl)c3)Oc3cc2cc(c3OC2OC(CO)C(O)C(O)C2OC2CC(C)(NCC=Cc3ccccc3)C(O)C(C)O2)Oc2ccc(cc2Cl)C1O` (stereo not drawn) [Compound 38, trans-cinnamyl], the MIC was 0.5 µg/mL (≈ 0.293 µM) in the test on Entercoccus faecalis 276 and no more than 0.06 µg/mL in test [2].

In the case of `CNC(CC(C)C)C(=O)NC1C(=O)NC(CC(N)=O)C(=O)NC2C(=O)NC3C(=O)NC(C(=O)NC(C(=O)O)c4cc(O)cc(O)c4-c4cc3ccc4O)C(OC3CC(C)(N)C(O)C(C)O3)c3ccc(c(Cl)c3)Oc3cc2cc(c3OC2OC(CO)C(O)C(O)C2OC2CC(C)(NCc3ccc4c(c3)CCO4)C(O)C(C)O2)Oc2ccc(cc2Cl)C1O` (stereo not drawn) [Compound 82, S-[2,3-dihydrobenzfuryl]methyl], the values for the MIC (in the test on Entercoccus faecalis 276; in test [2]) were no more than 0.06 µg/mL and 0.5 µg/mL (≈ 0.29 µM), respectively.

Regarding `CNC(CC(C)C)C(=O)NC1C(=O)NC(CC(N)=O)C(=O)NC2C(=O)NC3C(=O)NC(C(=O)NC(C(=O)O)c4cc(O)cc(O)c4-c4cc3ccc4O)C(OC3CC(C)(N)C(O)C(C)O3)c3ccc(c(Cl)c3)Oc3cc2cc(c3OC2OC(CO)C(O)C(O)C2OC2CC(C)(NCc3ccc(OC(C)=O)cc3)C(O)C(C)O2)Oc2ccc(cc2Cl)C1O` (centres unmarked) [Compound 138, 4-acetoxybenzyl], the MIC (with Entercoccus faecalis 276; in test [2]) was no more than 0.06 µg/mL each time.

For `C=CCCCCCCCCNC1(C)CC(OC2C(Oc3c4cc5cc3Oc3ccc(cc3Cl)C(OC3CC(C)(N)C(O)C(C)O3)C3NC(=O)C(NC(=O)C5NC(=O)C(CC(N)=O)NC(=O)C(NC(=O)C(CC(C)C)NC)C(O)c5ccc(c(Cl)c5)O4)c4ccc(O)c(c4)-c4c(O)cc(O)cc4C(C(=O)O)NC3=O)OC(CO)C(O)C2O)OC(C)C1O` (centres unmarked) [Compound 214, 9-decenyl], the MIC in the test with Entercoccus faecalis 276 was found to be 0.25 µg/mL (≈ 0.144 µM); in test [1], 2 µg/mL (≈ 1.16 µM).

Take `CNC(CC(C)C)C(=O)NC1C(=O)NC(CC(N)=O)C(=O)NC2C(=O)NC3C(=O)NC(C(=O)NC(C(=O)O)c4cc(O)cc(O)c4-c4cc3ccc4O)C(OC3CC(C)(N)C(O)C(C)O3)c3ccc(c(Cl)c3)Oc3cc2cc(c3OC2OC(CO)C(O)C(O)C2OC2CC(C)(NCc3ccc(-c4cccs4)cc3)C(O)C(C)O2)Oc2ccc(cc2Cl)C1O` (centres unmarked) [Compound 218, 4-[2-thienyl]benzyl]: the MIC (in the test on Entercoccus faecalis 276; in test [1]) was no more than 0.06 µg/mL each time.

For the compound `CNC(CC(C)C)C(=O)NC1C(=O)NC(CC(N)=O)C(=O)NC2C(=O)NC3C(=O)NC(C(=O)NC(C(=O)O)c4cc(O)cc(O)c4-c4cc3ccc4O)C(OC3CC(C)(N)C(O)C(C)O3)c3ccc(c(Cl)c3)Oc3cc2cc(c3OC2OC(CO)C(O)C(O)C2OC2CC(C)(NCc3ccc(-c4ccccc4C)c(C)c3)C(O)C(C)O2)Oc2ccc(cc2Cl)C1O` (centres unmarked) [Compound 237, 4-[2-methylphenyl]-3-methylbenzyl], the MIC (with Entercoccus faecalis 276; in test [1]) was 1 µg/mL (≈ 0.56 µM) each time.

The record behind these values is patent US5843889A, “Glycopeptide antibiotic derivatives” (Eli Lilly and Company, priority 1997, dated 1998).
